Measurements taken from paper PMC10135574, “N-Carbamoylputrescine Amidohydrolase of Bacteroides thetaiotaomicron, a Dominant Species of the Human Gut Microbiota” (Biomedicines, 2023).

Target: T1, NCPAH-(His)6; N-carbamoylputrescine amidohydrolase (NCPAH) (Bacteroides thetaiotaomicron, UniProt Q8A9E0)
T1 construct: gene BT_0875; full-length, C-terminal His6 tag kept (pET23b NdeI/XhoI, plasmid pMSK106), expressed in E. coli BL21(DE3)
T1 sequence (Q8A9E0 1-294): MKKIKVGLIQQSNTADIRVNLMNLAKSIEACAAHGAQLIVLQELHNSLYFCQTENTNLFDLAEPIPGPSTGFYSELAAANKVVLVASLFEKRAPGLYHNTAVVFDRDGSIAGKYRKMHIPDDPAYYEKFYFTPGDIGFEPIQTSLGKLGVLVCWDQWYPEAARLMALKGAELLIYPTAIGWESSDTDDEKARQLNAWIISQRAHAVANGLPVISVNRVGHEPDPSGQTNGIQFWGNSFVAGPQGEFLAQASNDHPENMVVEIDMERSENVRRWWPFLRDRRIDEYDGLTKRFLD
Assay: HPLC of putrescine formed
Format: biochemical
Conditions: read-out: % inhibition at 1 mM

Point of comparison: NCCCCN [putrescine], inhibition at 1000 µM ~50%. Against it:
- N=C(N)NCCCCN [agmatine] — higher, > 80%
- NCCCCNCCCN [spermidine] — higher, > 80%
